Values of other authors as cited in PubChem BioAssay AID1259409 (Chemical Carcinogenesis Research Information System (CCRIS), 2018).

Tested on: rodent chemically induced tumor inhibition, incidence and multiplicity
Experiment: CCRIS tumor inhibitor studies
Conditions: Dose [Inhibitor]: 0

Structure (SMILES)	tumour outcome (control, treated, inhibition, significance) (Carcinogen: 7,12-DIMETHYLBENZ[A]ANTHRACENE, 57-97-6, 0.01% IN DIET BEGINNING 3 WK POST CARCINOGEN DOSE AND CONTINUING FOR 6 WK (STUDY DURATION: 9 WK), Route [Inhibitor]: ORAL, Species: MOUSE, Strain/Sex: SWISS/FEMALE, Target Tissue: Type of Lesion: LUNG: ADENOMA, Dose [Carcinogen]: 40 UG ONCE ADMINISTERED TO NEWBORN MICE, Promoter: NONE USED)	tumour outcome (control, treated, inhibition, significance) (Carcinogen: 7,12-DIMETHYLBENZ[A]ANTHRACENE, 57-97-6, 0.01% IN DIET BEGINNING 3 WK POST CARCINOGEN DOSE AND CONTINUING FOR 6 WK (STUDY DURATION: 9 WK), Route [Inhibitor]: ORAL, Species: MOUSE, Strain/Sex: SWISS/MALE, Target Tissue: Type of Lesion: LUNG: ADENOMA, Dose [Carcinogen]: 40 UG ONCE ADMINISTERED TO NEWBORN MICE, Promoter: NONE USED)	tumour outcome (control, treated, inhibition, significance) (Carcinogen: AZOXYMETHANE (25843-45-2), 500 PPM IN DIET FOR 4 WK, BEGINNING 1 WK BEFORE THE FIRST CARCINOGEN DOSE (STUDY DURATION: 38 WK), Route [Inhibitor]: ORAL, Species: RAT, Strain/Sex: F344/MALE, Target Tissue: Type of Lesion: LARGE INTESTINE: ADENOCARCINOMA, Dose [Carcinogen]: 15 MG/KG BW 1 INJECTION/WK FOR 3 WK, Promoter: NONE USED)	tumour outcome (control, treated, inhibition, significance) (Carcinogen: AZOXYMETHANE (25843-45-2), 500 PPM IN DIET FOR 4 WK, BEGINNING 1 WK BEFORE THE FIRST CARCINOGEN DOSE (STUDY DURATION: 38 WK), Route [Inhibitor]: ORAL, Species: RAT, Strain/Sex: F344/MALE, Target Tissue: Type of Lesion: LARGE INTESTINE: ADENOMA, Dose [Carcinogen]: 15 MG/KG BW 1 INJECTIONS/WK FOR 3 WK, Promoter: NONE USED)	tumour outcome (control, treated, inhibition, significance) (Carcinogen: AZOXYMETHANE (25843-45-2), 500 PPM IN DIET FOR 4 WK, BEGINNING 1 WK BEFORE THE FIRST CARCINOGEN DOSE (STUDY DURATION: 38 WK), Route [Inhibitor]: ORAL, Species: RAT, Strain/Sex: F344/MALE, Target Tissue: Type of Lesion: SMALL INTESTINE: ADENOCARCINOMA, Dose [Carcinogen]: 15 MG/KG BW 1 INJECTION/WK FOR 3 WK, Promoter: NONE USED)	tumour outcome (control, treated, inhibition, significance) (Carcinogen: AZOXYMETHANE (25843-45-2), 500 PPM IN DIET FOR 4 WK, BEGINNING 1 WK BEFORE THE FIRST CARCINOGEN DOSE (STUDY DURATION: 38 WK), Route [Inhibitor]: ORAL, Species: RAT, Strain/Sex: F344/MALE, Target Tissue: Type of Lesion: SMALL INTESTINE: ADENOMA, Dose [Carcinogen]: 15 MG/KG BW 1 INJECTION/WK FOR 3 WK, Promoter: NONE USED)	tumour outcome (control, treated, inhibition, significance) (Carcinogen: AZOXYMETHANE (25843-45-2), 500 PPM IN DIET FOR 34 WK, BEGINNING 1 WK AFTER THE LAST CARCINOGEN DOSE (STUDY DURATION: 38 WK), Route [Inhibitor]: ORAL, Species: RAT, Strain/Sex: F344/MALE, Target Tissue: Type of Lesion: LARGE INTESTINE: ADENOCARCINOMA, Dose [Carcinogen]: 15 MG/KG BW 1 INJECTION/WK FOR 3 WK, Promoter: NONE USED)	tumour outcome (control, treated, inhibition, significance) (Carcinogen: AZOXYMETHANE (25843-45-2), 500 PPM IN DIET FOR 34 WK, BEGINNING 1 WK AFTER THE LAST CARCINOGEN DOSE (STUDY DURATION: 38 WK), Route [Inhibitor]: ORAL, Species: RAT, Strain/Sex: F344/MALE, Target Tissue: Type of Lesion: LARGE INTESTINE: ADENOMA, Dose [Carcinogen]: 15 MG/KG BW 1 INJECTION/WK FOR 3 WK, Promoter: NONE USED)	tumour outcome (control, treated, inhibition, significance) (Carcinogen: AZOXYMETHANE (25843-45-2), 500 PPM IN DIET FOR 34 WK, BEGINNING 1 WK AFTER THE LAST CARCINOGEN DOSE (STUDY DURATION: 38 WK), Route [Inhibitor]: ORAL, Species: RAT, Strain/Sex: F344/MALE, Target Tissue: Type of Lesion: SMALL INTESTINE: ADENOCARCINOMA, Dose [Carcinogen]: 15 MG/KG BW 1 INJECTION/WK FOR 3 WK, Promoter: NONE USED)	tumour outcome (control, treated, inhibition, significance) (Carcinogen: AZOXYMETHANE (25843-45-2), 500 PPM IN DIET FOR 34 WK, BEGINNING 1 WK AFTER THE LAST CARCINOGEN DOSE (STUDY DURATION: 38 WK), Route [Inhibitor]: ORAL, Species: RAT, Strain/Sex: F344/MALE, Target Tissue: Type of Lesion: SMALL INTESTINE: ADENOMA, Dose [Carcinogen]: 15 MG/KG BW 1 INJECTION/WK FOR 3 WK, Promoter: NONE USED)	tumour outcome (control, treated, inhibition, significance) (Carcinogen: BENZO[A]PYRENE, 50-32-8, 0.01% IN DIET BEGINNING 3 WK POST CARCINOGEN DOSE AND CONTINUING FOR 6 WK (STUDY DURATION: 9 WK), Route [Inhibitor]: ORAL, Species: MOUSE, Strain/Sex: SWISS/FEMALE, Target Tissue: Type of Lesion: LUNG: ADENOMA, Dose [Carcinogen]: 1 MG ONCE ADMINISTERED TO NEWBORN MICE, Promoter: NONE USED)	tumour outcome (control, treated, inhibition, significance) (Carcinogen: BENZO[A]PYRENE, 50-32-8, 0.01% IN DIET BEGINNING 3 WK POST CARCINOGEN DOSE AND CONTINUING FOR 6 WK (STUDY DURATION: 9 WK), Route [Inhibitor]: ORAL, Species: MOUSE, Strain/Sex: SWISS/MALE, Target Tissue: Type of Lesion: LUNG: ADENOMA, Dose [Carcinogen]: 1 MG ONCE ADMINISTERED TO NEWBORN MICE, Promoter: NONE USED)	tumour outcome (control, treated, inhibition, significance) (Carcinogen: BENZO[A]PYRENE, 50-32-8, 1 UMOL IN 0.2 ML ACETONE APPLIED 24 AND 1 HR PRIOR TO CARCINOGEN DOSE (STUDY DURATION: 22 WK), Route [Inhibitor]: DERMAL, Species: MOUSE, Strain/Sex: CD-1/FEMALE, Target Tissue: Type of Lesion: SKIN: TUMOR, Dose [Carcinogen]: 0.3 UMOL IN 0.2 ML ACETONE ONCE, Promoter: 12-O-TETRADECANOYLPHORBOL 13-ACETATE, 16561-29-8)	tumour outcome (control, treated, inhibition, significance) (Carcinogen: N-METHYLNITROSOUREA, 684-93-5, DIETHYLNITROSAMINE, 55-18-5, N,N-DIBUTYLNITROS- AMINE, 924-16-3, Carcinogen: N-METHYLNITROSOUREA, 684-93-5, DIETHYLNITROSAMINE, 55-18-5, N,N-DIBUTYLNITROS- AMINE, 924-16-3, 0.01% IN DIET FOR 16 WK BEGINNING POST LAST CARCINOGEN DOSE (STUDY DURATION: 20 WK), Route [Inhibitor]: ORAL, Species: RAT, Strain/Sex: F344/MALE, Target Tissue: Type of Lesion: LUNG: ADENOMA, Dose [Carcinogen]: 100 MG/KG DIETHYLNITROSAMINE INTRAPERITONEAL ON D 1 THEN 200 MG/KG N-METHYLNITROSOUREA ON D 2, 5, 8, 11, AND 0.05% N,N-D)	tumour outcome (control, treated, inhibition, significance) (Carcinogen: VINYL CARBAMATE, 15805-73-9, 2.5 UMOL IN 0.2 ML ACETONE ONCE 10 MIN PRIOR TO CARCINOGEN DOSE (STUDY DURATION: 22 WK), Route [Inhibitor]: DERMAL, Species: MOUSE, Strain/Sex: ICR/FEMALE, Target Tissue: Type of Lesion: SKIN: PAPILLOMA, Dose [Carcinogen]: 5.8 UMOL IN 0.2 ML ACETONE ONCE, Promoter: 12-O-TETRADECANOYLPHORBOL 13-ACETATE, 16561-29-8)	tumour outcome (control, treated, inhibition, significance) (Carcinogen: 7,12-DIMETHYLBENZ[A]ANTHRACENE, 57-97-6, 17 NMOL 2/WK APPLIED 1 HR PRIOR TO EACH PROMOTER DOSE FOR 20 WK (STUDY DURATION: 21 WK), Route [Inhibitor]: DERMAL, Species: MOUSE, Target Tissue: Type of Lesion: SKIN: TUMOR, Dose [Carcinogen]: 390 NMOL ONCE, Promoter: 12-O-TETRADECANOYLPHORBOL-13-ACETATE, 16561-29-8)
COc1cc(CNC(=O)CCCC/C=C/C(C)C)ccc1O	17/17 (100%), 20/22 (91%), 9%, not calculated	10/10 (100%), 23/24 (96%), 4%, not calculated	9/15 (60%), 4/17 (24%), 60%, p = 0.0407	4/15 (27%), 1/17 (6%), 78%, not significant	4/15 (27%), 3/17 (18%), 33%, not significant	1/15 (7%), 0/17 (0%), 100%, not significant	9/15 (60%), 6/14 (43%), 28%, not significant	4/15 (27%), 2/14 (14%), 48%, not significant	4/15 (27%), 3/14 (21%), 22%, not significant	1/15 (7%), 0/14 (0%), 100%, not significant	8/34 (24%), 4/30 (13%), 46%, p<0.05	7/35 (20%), 3/34 (9%), 55%, p<0.01	84%, 68%, 19%, not significant	9/16 (56%), 2/15 (13%), 77%, p<0.02	70%, 53%, 24%, not significant	
Clc1c(Cl)c(Cl)c2c(c1Cl)Oc1c(Cl)c(Cl)c(Cl)c(Cl)c1O2																100%, 87%, 13%, not calculated
